Measurements: the NIST ThermoML archive (doi:10.1021/je300799f)

Key:
[1] = xn = mol fraction of the nth substance listed; details: 101 kPa, Liquid, Vibrating tube method, x2 = 0
[2] = Liquid; for mass density: 101.3 kPa, Vibrating tube method; for vapor or sublimation pressure: Ebulliometric method (Recirculating still)
[3] = refractive index (Na D-line) (dimensionless); details: 298.15 K; 101.33 kPa; Liquid; Standard Abbe refractometry

CCCCCCC [heptane] + CCCC(=O)OCC
[1]
Details	mass density [kg/m3]
288.15 K	688.16
298.15 K	679.62
308.15 K	670.96
318.15 K	662.33
328.15 K	653.61

CCCC(=O)OC [methyl butanoate]
[2]
Details	mass density [kg/m3]	vapor or sublimation pressure [kPa]
288.15 K	903.31	–
298.15 K	892.31	–
308.15 K	881.19	–
318.15 K	870.06	–
328.15 K	858.8	–
354.1 K	–	50
355.47 K	–	52.5
356.79 K	–	55
358.1 K	–	57.5
359.34 K	–	60
360.56 K	–	62.5
361.72 K	–	65
362.84 K	–	67.5
363.94 K	–	70
364.99 K	–	72.5
366.05 K	–	75
367.04 K	–	77.5
368.03 K	–	80
369 K	–	82.5
370.01 K	–	85
370.93 K	–	87.5
371.84 K	–	90
372.72 K	–	92.5
373.58 K	–	95
374.42 K	–	97.5
375.27 K	–	100
375.74 K	–	101.32
376.91 K	–	105
378.42 K	–	110
379.91 K	–	115
381.34 K	–	120
382.73 K	–	125
384.07 K	–	130
385.37 K	–	135
386.63 K	–	140
387.87 K	–	145
389.07 K	–	150
390.24 K	–	155
391.38 K	–	160
392.48 K	–	165
393.58 K	–	170
394.64 K	–	175
395.67 K	–	180
396.7 K	–	185
397.68 K	–	190
398.67 K	–	195
399.61 K	–	200
400.54 K	–	205
401.46 K	–	210
402.37 K	–	215
403.25 K	–	220
404.13 K	–	225
404.97 K	–	230
405.81 K	–	235
406.64 K	–	240
407.45 K	–	245
408.26 K	–	250
409.05 K	–	255
409.83 K	–	260
410.58 K	–	265
411.35 K	–	270
412.09 K	–	275
412.83 K	–	280

Details	refractive index
[3]	1.3851

CCCCCCCCC [nonane] + CCCC(=O)OC
[1]
Details	mass density [kg/m3]
288.15 K	721.65
298.15 K	713.85
308.15 K	705.96
318.15 K	698.06
328.15 K	690.17

CCCC(=O)OCC [ethyl butanoate]
[2]
Details	mass density [kg/m3]	vapor or sublimation pressure [kPa]
288.15 K	884.01	–
298.15 K	873.5	–
308.15 K	862.85	–
318.15 K	852.26	–
328.15 K	841.55	–
377.33 K	–	60
378.63 K	–	62.5
379.81 K	–	65
380.99 K	–	67.5
382.1 K	–	70
383.23 K	–	72.5
384.31 K	–	75
385.34 K	–	77.5
386.35 K	–	80
387.34 K	–	82.5
388.31 K	–	85
389.25 K	–	87.5
390.17 K	–	90
391.06 K	–	92.5
391.94 K	–	95
392.81 K	–	97.5
393.66 K	–	100
394.26 K	–	101.32
394.31 K	–	101.32
395.43 K	–	105
397.05 K	–	110
398.57 K	–	115
400.1 K	–	120
401.54 K	–	125
402.99 K	–	130
404.34 K	–	135
405.62 K	–	140
406.96 K	–	145
408.22 K	–	150
409.45 K	–	155
410.61 K	–	160
411.77 K	–	165
412.95 K	–	170
414.05 K	–	175
415.01 K	–	180
416.08 K	–	185
417.14 K	–	190
418.15 K	–	195
419.14 K	–	200
420.12 K	–	205
421.1 K	–	210
422.01 K	–	215
422.94 K	–	220
423.85 K	–	225
424.79 K	–	230
425.67 K	–	235
426.53 K	–	240
427.35 K	–	245
428.2 K	–	250
429.04 K	–	255
429.84 K	–	260
430.65 K	–	265
431.42 K	–	270
432.23 K	–	275
433 K	–	280

Details	refractive index
[3]	1.3898

CCCCCCCCC [nonane]
[2]
Details	mass density [kg/m3]	vapor or sublimation pressure [kPa]
288.15 K	721.65	–
298.15 K	713.85	–
308.15 K	705.96	–
318.15 K	698.06	–
328.15 K	690.17	–
395.53 K	–	45
397.25 K	–	47.5
398.89 K	–	50
400.5 K	–	52.5
402.04 K	–	55
403.51 K	–	57.5
404.94 K	–	60
406.33 K	–	62.5
407.66 K	–	65
408.95 K	–	67.5
410.24 K	–	70
411.45 K	–	72.5
412.64 K	–	75
413.81 K	–	77.5
414.94 K	–	80
416.07 K	–	82.5
417.16 K	–	85
418.22 K	–	87.5
419.24 K	–	90
420.25 K	–	92.5
421.24 K	–	95
422.22 K	–	97.5
423.18 K	–	100
423.87 K	–	101.32
423.9 K	–	101.32
425.1 K	–	105
426.76 K	–	110
428.48 K	–	115
430.15 K	–	120
431.71 K	–	125
433.28 K	–	130
434.77 K	–	135
436.25 K	–	140
437.64 K	–	145
439.03 K	–	150
440.38 K	–	155
441.68 K	–	160
442.99 K	–	165
444.25 K	–	170
445.46 K	–	175
446.65 K	–	180
447.83 K	–	185
448.99 K	–	190
450.12 K	–	195
451.2 K	–	200
452.29 K	–	205
453.35 K	–	210
454.41 K	–	215
455.44 K	–	220
456.45 K	–	225
457.45 K	–	230
458.43 K	–	235
459.41 K	–	240
460.35 K	–	245
461.28 K	–	250
462.19 K	–	255
463.08 K	–	260
463.95 K	–	265
464.86 K	–	270
465.73 K	–	275
466.59 K	–	280

Details	refractive index
[3]	1.4032

CCCCCCCCC [nonane] + CCCC(=O)OCC
[1]
Details	mass density [kg/m3]
288.15 K	721.65
298.15 K	713.85
308.15 K	705.96
318.15 K	698.06
328.15 K	690.17

CCCCCCC [heptane]
[2]
Details	mass density [kg/m3]	vapor or sublimation pressure [kPa]
288.15 K	688.16	–
298.15 K	679.62	–
308.15 K	670.96	–
318.15 K	662.33	–
328.15 K	653.61	–
346.23 K	–	45
347.76 K	–	47.5
349.29 K	–	50
350.7 K	–	52.5
352.07 K	–	55
353.41 K	–	57.5
354.69 K	–	60
355.94 K	–	62.5
357.14 K	–	65
358.32 K	–	67.5
359.45 K	–	70
360.54 K	–	72.5
361.61 K	–	75
362.66 K	–	77.5
363.68 K	–	80
364.71 K	–	82.5
365.65 K	–	85
366.61 K	–	87.5
367.53 K	–	90
368.42 K	–	92.5
369.32 K	–	95
370.19 K	–	97.5
371.07 K	–	100
371.38 K	–	101.32
371.51 K	–	101.32
372.72 K	–	105
374.31 K	–	110
375.85 K	–	115
377.34 K	–	120
378.77 K	–	125
380.18 K	–	130
381.52 K	–	135
382.84 K	–	140
384.13 K	–	145
385.36 K	–	150
386.6 K	–	155
387.78 K	–	160
388.94 K	–	165
390.08 K	–	170
391.17 K	–	175
392.25 K	–	180
393.3 K	–	185
394.34 K	–	190
395.37 K	–	195
396.37 K	–	200
397.35 K	–	205
398.29 K	–	210
399.24 K	–	215
400.17 K	–	220
401.07 K	–	225
401.97 K	–	230
402.84 K	–	235
403.72 K	–	240
404.57 K	–	245
405.42 K	–	250
406.25 K	–	255
407.05 K	–	260
407.87 K	–	265
408.65 K	–	270
409.42 K	–	275
410.22 K	–	280

Details	refractive index
[3]	1.3853

CCCCCCC [heptane] + CCCC(=O)OC
[1]
Details	mass density [kg/m3]
288.15 K	688.16
298.15 K	679.62
308.15 K	670.96
318.15 K	662.33
328.15 K	653.61
